The text below walks through data of ChEMBL document CHEMBL3272246, “Biological active polycycloalkanes. 4. Phosphoric esters of trimethylenenorbornyl alcohols” (J Med Chem, 1977).

Data set [1] in a line: Cytotoxicity against chick embryo fibroblasts after 24 hrs by microscopic analysis. Conditions: chicken. Type of data set: cell-based, Gallus gallus, Fibroblast.
The subject of data set [2] is Newcastle disease virus. In words: Antiviral activity against Newcastle disease virus infected in chick embryo fibroblasts assessed as suppression of virus multiplication to 1% by measuring hemagglutinating activity by tube assay method. Conditions: avian paramyxovirus 1. Type of data set: functional.
Data set [3] relates to Newcastle disease virus. In words: Ratio of amantadine hydrochloride MIC to compound MIC for Newcastle disease virus infected in chick embryo fibroblasts. Type of data set: functional, avian paramyxovirus 1.

≈ marks a conversion by molar mass, not a printed value. Counter-ions that a name gives are not always drawn.

`NC12CC3CC(CC(C3)C1)C2` [AMANTADINE HYDROCHLORIDE] registered an MCC at 24 h in data set [1] of 1300 µM. For the same molecule, the MIC in data set [2] was 1300 µM.
For `O=P(O[C@H]1C[C@H]2C[C@H]1[C@@H]1CCC[C@H]21)(O[C@H]1C[C@H]2C[C@H]1[C@@H]1CCC[C@H]21)O[C@H]1C[C@H]2C[C@H]1[C@@H]1CCC[C@H]21`, in data set [1], the MCC at 24 h came out at 400 µM. In addition, in data set [2], the MIC amounted to 1000 µM (≈ 501 µg/mL).
Molecule `O=P(O)(O[C@H]1C[C@H]2C[C@H]1[C@@H]1CCC[C@H]21)O[C@H]1C[C@H]2C[C@H]1[C@@H]1CCC[C@H]21` came in with an MCC at 24 h in data set [1] of 550 µM. For the same molecule, the Ratio in data set [3] is listed as 2. Moreover, the MIC in data set [2] is 550 µM (≈ 202 µg/mL).
